Laboratory results reported in ChEMBL document CHEMBL5465560, “Selectivity Literature for EUbOPEN Chemogenomic Library” (2024).

How the values were obtained:
[1] = target: T1, Receptor-type tyrosine-protein kinase FLT3 (Homo sapiens, UniProt P36888); test: Selectivity interaction (Kinase panel (Eurofins, enzymatic assay)) EUB0000311b FLT3
T1 sequence (P36888 whole entry): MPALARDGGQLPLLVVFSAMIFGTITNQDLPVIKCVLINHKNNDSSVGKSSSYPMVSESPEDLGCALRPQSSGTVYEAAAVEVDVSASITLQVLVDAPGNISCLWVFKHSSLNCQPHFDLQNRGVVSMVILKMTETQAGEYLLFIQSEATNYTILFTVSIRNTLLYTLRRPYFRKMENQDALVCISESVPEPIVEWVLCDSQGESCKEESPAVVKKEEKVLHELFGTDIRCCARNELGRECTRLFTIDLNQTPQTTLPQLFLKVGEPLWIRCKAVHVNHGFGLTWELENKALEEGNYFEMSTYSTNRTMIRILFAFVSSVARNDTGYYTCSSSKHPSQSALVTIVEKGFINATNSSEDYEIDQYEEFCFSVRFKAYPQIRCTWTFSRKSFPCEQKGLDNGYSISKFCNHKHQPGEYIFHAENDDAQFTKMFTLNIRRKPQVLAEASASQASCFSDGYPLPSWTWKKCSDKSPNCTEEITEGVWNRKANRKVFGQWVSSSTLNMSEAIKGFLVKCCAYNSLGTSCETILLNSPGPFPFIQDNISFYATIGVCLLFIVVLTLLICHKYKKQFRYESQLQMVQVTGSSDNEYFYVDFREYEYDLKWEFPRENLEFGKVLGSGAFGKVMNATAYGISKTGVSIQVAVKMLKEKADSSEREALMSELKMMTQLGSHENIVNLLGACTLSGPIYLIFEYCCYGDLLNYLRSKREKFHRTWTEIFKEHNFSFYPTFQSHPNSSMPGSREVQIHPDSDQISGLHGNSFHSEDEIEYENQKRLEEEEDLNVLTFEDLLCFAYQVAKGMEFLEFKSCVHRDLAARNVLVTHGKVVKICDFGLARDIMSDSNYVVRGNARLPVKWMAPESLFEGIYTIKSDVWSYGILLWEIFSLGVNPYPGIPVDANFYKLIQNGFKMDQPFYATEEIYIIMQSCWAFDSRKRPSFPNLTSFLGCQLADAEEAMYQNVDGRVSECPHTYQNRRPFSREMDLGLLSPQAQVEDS

[2] = target: Serine/threonine-protein kinase PAK 3 (Homo sapiens) (UniProt O75914); test: Selectivity interaction (KinomeScan (DiscoverX)) EUB0000695a PAK3; conditions: at 100 nM
Sequence of Serine/threonine-protein kinase PAK 3 (Homo sapiens) (O75914 whole entry, looked up): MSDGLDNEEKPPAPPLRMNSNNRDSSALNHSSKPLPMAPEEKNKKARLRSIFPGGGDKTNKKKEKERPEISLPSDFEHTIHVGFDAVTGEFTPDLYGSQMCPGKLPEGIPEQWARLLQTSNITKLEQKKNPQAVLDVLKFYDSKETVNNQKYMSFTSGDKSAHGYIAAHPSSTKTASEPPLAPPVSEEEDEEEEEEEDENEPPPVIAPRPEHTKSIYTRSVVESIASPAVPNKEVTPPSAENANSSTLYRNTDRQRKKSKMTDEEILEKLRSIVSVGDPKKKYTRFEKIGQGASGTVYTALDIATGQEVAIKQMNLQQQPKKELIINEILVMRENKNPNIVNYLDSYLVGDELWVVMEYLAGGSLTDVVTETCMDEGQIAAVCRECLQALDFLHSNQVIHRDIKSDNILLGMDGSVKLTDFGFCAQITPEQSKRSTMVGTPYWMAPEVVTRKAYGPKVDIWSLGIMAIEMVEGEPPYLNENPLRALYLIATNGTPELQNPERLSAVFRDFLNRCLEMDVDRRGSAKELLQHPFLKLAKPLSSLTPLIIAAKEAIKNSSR

[3] = target: Beta-2 adrenergic receptor (Homo sapiens, UniProt P07550); test: Selectivity interaction (GPCR panel (PDSP screen)) EUB0001079a ADRB2; conditions: at 10 µM
Sequence of Beta-2 adrenergic receptor (P07550 whole entry, looked up): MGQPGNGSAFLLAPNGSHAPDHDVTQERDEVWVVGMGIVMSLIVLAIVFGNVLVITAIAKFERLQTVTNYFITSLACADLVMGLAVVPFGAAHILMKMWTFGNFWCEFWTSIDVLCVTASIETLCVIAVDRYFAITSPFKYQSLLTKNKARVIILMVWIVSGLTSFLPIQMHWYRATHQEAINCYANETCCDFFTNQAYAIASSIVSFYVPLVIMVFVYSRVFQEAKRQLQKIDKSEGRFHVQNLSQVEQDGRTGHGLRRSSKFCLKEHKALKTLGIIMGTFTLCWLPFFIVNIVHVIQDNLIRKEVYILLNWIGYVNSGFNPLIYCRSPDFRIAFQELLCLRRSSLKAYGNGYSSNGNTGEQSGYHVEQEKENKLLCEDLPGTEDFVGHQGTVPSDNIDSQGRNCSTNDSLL

[4] = target: Serine/threonine-protein kinase PLK3 (Homo sapiens, UniProt Q9H4B4); test: Selectivity interaction (KinomeScan (DiscoverX)) EUB0001079a PLK3; conditions: at 1 µM
Sequence of Serine/threonine-protein kinase PLK3 (Q9H4B4 whole entry, looked up): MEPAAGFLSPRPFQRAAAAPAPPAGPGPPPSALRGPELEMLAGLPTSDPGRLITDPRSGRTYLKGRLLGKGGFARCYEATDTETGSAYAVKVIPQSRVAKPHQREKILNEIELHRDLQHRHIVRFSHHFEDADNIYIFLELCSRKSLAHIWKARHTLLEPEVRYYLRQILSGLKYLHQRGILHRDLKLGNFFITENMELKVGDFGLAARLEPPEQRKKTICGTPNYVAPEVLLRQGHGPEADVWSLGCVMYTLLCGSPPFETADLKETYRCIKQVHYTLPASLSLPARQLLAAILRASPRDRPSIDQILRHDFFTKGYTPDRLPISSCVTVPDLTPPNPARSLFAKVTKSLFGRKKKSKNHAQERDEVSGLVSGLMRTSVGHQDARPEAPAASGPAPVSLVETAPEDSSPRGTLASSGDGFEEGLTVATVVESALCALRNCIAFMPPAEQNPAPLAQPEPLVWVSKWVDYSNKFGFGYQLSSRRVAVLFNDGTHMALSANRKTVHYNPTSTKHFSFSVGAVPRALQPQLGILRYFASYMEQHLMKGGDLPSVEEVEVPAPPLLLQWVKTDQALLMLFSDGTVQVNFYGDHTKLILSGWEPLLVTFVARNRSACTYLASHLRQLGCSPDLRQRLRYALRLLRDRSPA

[5] = target: Calcium/calmodulin-dependent protein kinase type II subunit alpha (Homo sapiens, UniProt Q9UQM7); test: Selectivity interaction (Kinase panel (Z-LYTE Assay)) EUB0001632a CAMK2A; conditions: at 10 µM
Sequence of Calcium/calmodulin-dependent protein kinase type II subunit alpha (Q9UQM7 whole entry): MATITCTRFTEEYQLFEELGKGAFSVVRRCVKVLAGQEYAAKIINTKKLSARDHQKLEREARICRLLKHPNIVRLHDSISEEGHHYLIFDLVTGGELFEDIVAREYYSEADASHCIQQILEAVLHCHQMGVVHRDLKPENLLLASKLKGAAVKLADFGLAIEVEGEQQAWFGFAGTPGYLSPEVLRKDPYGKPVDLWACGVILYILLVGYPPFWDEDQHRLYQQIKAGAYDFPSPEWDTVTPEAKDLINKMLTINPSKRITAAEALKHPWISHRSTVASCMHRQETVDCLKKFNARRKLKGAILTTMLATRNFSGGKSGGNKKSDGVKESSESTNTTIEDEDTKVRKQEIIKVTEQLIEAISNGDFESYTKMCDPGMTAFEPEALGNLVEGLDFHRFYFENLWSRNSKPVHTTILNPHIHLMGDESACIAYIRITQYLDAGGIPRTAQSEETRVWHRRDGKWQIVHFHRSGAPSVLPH

[6] = target: Ephrin type-A receptor 4 (Homo sapiens, UniProt P54764); test: Selectivity interaction (KinomeScan (DiscoverX)) EUB0001049a EPHA4; conditions: at 1 µM
Sequence of Ephrin type-A receptor 4 (P54764 whole entry): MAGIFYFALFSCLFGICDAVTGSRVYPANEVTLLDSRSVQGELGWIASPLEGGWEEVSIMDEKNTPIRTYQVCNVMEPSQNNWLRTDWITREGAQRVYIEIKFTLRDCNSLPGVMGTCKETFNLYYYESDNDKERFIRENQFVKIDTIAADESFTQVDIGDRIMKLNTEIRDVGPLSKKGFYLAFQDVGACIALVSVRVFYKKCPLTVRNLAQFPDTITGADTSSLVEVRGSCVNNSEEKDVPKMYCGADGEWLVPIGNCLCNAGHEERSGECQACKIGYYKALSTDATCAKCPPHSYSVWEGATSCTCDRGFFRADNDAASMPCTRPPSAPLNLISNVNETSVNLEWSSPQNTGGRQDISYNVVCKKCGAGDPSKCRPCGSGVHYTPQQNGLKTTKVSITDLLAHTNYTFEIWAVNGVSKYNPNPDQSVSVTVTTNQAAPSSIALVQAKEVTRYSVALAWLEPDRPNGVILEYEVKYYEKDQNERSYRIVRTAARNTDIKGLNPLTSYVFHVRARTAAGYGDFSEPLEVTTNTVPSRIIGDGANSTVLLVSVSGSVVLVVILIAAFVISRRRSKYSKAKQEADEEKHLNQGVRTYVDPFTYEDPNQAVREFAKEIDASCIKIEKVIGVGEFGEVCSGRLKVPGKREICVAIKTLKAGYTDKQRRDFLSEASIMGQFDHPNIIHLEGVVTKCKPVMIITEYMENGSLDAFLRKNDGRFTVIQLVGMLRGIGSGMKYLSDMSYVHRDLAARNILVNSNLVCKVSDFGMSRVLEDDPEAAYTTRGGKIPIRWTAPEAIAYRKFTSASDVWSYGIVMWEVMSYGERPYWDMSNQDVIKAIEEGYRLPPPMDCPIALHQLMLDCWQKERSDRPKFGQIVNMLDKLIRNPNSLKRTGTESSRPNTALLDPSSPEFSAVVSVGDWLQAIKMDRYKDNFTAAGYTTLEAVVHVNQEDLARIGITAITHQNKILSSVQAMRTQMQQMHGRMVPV

[7] = test system: Tyrosine-protein kinase ABL1 (Homo sapiens), P00519 [Q252H]; test: Selectivity interaction (KinomeScan (DiscoverX)) EUB0001049a ABL1; conditions: at 1 µM
[8] = target: [Pyruvate dehydrogenase (acetyl-transferring)] kinase isozyme 1, mitochondrial (Homo sapiens, UniProt Q15118); test: Selectivity interaction (Upstate Kinase Profiler service (Millipore)) EUB0000056c PDK1; conditions: at 1 µM
[9] = target: T2, Serine/threonine-protein kinase TBK1 (Homo sapiens) (UniProt Q9UHD2); test: Selectivity interaction (ProQinase) EUB0000171b TBK1
T2 sequence (whole entry): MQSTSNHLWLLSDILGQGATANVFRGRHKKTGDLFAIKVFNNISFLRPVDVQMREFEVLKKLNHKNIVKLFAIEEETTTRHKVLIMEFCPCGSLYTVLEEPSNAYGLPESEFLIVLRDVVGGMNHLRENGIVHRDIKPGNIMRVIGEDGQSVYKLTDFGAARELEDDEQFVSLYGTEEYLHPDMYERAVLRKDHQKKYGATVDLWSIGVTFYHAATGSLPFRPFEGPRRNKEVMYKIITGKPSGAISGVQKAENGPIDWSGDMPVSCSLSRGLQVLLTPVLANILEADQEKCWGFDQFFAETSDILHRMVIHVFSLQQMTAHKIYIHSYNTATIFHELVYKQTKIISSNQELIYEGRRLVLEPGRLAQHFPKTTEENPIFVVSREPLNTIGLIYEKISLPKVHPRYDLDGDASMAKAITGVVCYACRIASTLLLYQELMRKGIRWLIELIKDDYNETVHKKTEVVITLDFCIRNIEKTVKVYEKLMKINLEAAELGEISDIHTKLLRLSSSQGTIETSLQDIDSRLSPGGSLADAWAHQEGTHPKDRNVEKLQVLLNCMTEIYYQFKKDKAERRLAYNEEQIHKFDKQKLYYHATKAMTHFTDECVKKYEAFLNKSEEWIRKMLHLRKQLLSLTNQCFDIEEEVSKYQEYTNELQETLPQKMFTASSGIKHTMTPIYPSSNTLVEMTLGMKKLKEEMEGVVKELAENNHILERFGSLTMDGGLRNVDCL

[10] = target: Ribosomal protein S6 kinase alpha-3 (Homo sapiens, UniProt P51812); test: Selectivity interaction (ActivX KiNativ screen (ex vivo kinase selectivity in human PBMCs)) EUB0001619a RPS6KA3; assay type: cell-based; conditions: PBMC, at 1 µM
Sequence of Ribosomal protein S6 kinase alpha-3 (P51812 whole entry): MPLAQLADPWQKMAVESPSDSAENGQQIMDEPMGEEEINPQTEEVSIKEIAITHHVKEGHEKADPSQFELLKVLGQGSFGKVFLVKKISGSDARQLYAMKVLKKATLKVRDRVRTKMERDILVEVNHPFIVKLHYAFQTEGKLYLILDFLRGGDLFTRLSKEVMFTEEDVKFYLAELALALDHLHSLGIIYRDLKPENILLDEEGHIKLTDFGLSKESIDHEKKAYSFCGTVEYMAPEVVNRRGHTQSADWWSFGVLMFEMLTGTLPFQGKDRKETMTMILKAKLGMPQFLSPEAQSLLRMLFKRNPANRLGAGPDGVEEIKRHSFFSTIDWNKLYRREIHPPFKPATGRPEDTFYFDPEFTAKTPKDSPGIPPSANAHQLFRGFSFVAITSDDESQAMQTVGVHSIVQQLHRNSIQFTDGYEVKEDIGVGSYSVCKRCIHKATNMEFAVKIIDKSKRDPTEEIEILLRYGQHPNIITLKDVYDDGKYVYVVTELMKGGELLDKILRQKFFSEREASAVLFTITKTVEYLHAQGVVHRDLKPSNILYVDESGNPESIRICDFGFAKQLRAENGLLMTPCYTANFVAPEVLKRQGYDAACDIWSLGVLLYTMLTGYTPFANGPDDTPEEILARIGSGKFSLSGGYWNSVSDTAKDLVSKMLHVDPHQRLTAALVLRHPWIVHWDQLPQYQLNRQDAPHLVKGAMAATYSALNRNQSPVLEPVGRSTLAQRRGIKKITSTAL

[11] = target: Tyrosine-protein kinase CSK (Homo sapiens) (UniProt P41240); test: Selectivity interaction (ActivX KiNativ screen (kinase selectivity in THP-1 cell lysates)) EUB0000639a CSK; assay type: subcellular; conditions: lysate, at 5 µM
Sequence of Tyrosine-protein kinase CSK (Homo sapiens) (P41240 2-450 limits assumed): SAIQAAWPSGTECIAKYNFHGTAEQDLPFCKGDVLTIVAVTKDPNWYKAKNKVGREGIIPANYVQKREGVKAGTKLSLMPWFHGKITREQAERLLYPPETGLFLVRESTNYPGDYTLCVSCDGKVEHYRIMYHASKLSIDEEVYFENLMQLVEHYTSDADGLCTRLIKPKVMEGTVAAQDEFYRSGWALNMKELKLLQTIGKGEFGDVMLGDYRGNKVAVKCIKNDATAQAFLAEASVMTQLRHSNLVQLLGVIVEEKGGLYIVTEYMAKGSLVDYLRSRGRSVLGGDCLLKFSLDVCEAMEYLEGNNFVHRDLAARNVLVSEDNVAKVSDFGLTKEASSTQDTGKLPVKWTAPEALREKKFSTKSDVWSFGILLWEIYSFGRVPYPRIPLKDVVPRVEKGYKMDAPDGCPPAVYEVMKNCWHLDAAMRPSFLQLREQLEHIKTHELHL

Work on CCc1ccccc1C(=O)Nc1n[nH]c2c(C)c(F)c(C3C(C#N)=C(C)N(C)C(C)=C3C#N)cc12 [BAY-3827] yielded an IC50 [1] of 124 nM.

With Cc1cc(F)c(C(=O)Nc2cccc(-c3nncn3C(C)C)n2)cc1-n1cnc(C2CC2)c1 the % of control [2] was 89%.

Work on Nc1cnc(N2CCc3cc(S(=O)(=O)Nc4c(F)cc(Cl)cc4F)cc(N4CCCC4=O)c32)nc1 [TP-020n] yielded a % of inhibition [3] of -3.08% and a % of control [4] of 100%.

Cn1cc(-n2cnc3c(NCc4nc5cc(Cl)c(Cl)cc5[nH]4)nc(N4CCOCC4)nc32)cn1 was tested, and the % of control [5] was -0.947%.

COc1cc(Nc2nc(C)cc(-c3cnn4nc(OC)ccc34)n2)cc(C(F)(F)F)c1 was tested, and the % of control [6] was 100% and the % of control [7] was 80%.

In the case of Cc1ccc(-c2ccc3c(ccc4sc5c(c43)NC[C@@H](C)NC5=O)n2)cn1, the % of inhibition [8] is reported as 0%.

C=CC(=O)Nc1cccc(C(=O)Nc2ccc(Nc3cc(-c4[nH]c(SC)nc4C)ccn3)cc2)c1 was tested, and the % of control ([9]; at 1 µM) was 84% and the % of control ([9]; at 5 µM) was 69%.

N#Cc1cccc(-c2c[nH]c3ncnc(N4CCOCC4)c23)c1 showed a % of inhibition [10] of -11%.

Molecule CC[C@@H]1[C@H](F)C(=O)N[C@@H]1COc1nccc2cc(C(N)=O)c(OC)cc12 [ZIMLOVISERTIB] has a % of inhibition [11] of -2.6%.
